According to patent US20160106837A1, “COMBINATION OF CD37 ANTIBODIES WITH CHLORAMBUCIL” (BOEHRINGER INGELHEIM INTERNATIONAL GMBH, priority 2013, published 2016):
Entries after “also recorded” stand apart in the source; their conditions may differ.

How the values were obtained:
[1] = Body weight / tolerability in DOHH2 tumor-bearing C.B-17 scid mice
[2] = system: human follicular lymphoma DOHH2; experiment: Subcutaneous xenograft model of the human follicular lymphoma DOHH2 in C.B-17 scid mice: tumor growth; assay type: in vivo

## O=C(O)CCCc1ccc(N(CCCl)CCCl)cc1 [chlorambucil, 4-[Bis(2-chloroethy)amino]benzenebutaonic acid]
[1]; after one week / first 7 days of the study
  body weight loss during first week: 13.4%
[1]; median body weight change, day 16
  Weight change: −5.4%
[2]; day 16
  CR (complete tumor regression): 0 x/7
  PR (partial tumor regression): 0 x/7
  tumor regression (in words): tumor regressions were not observed
[2]; median, day 16, A2 10 mg/kg i.p. d1,5,8,12,15, chlorambucil 6 mg/kg i.p. d2,6
  TGI: 71%
[2]; vs controls
  tumor growth inhibition (in words): moderate but significant inhibition of tumor growth; also recorded: moderate but significant efficacy
